{"source": "patent US5410024A", "about": "“Human cancer inhibitory pentapeptide amides” (Arizona Board of Regents acting on behalf of Arizona State …, priority 1993, dated 1995)", "key": {"[1]": {"system": "OVCAR-3", "assay": "NCI human tumor cell line screen, Ovarian OVCAR-3", "format": "cell-based", "conditions": "minipanel comparison, column A (key not visible; values match OVCAR-3)", "text": "(§1) Current research in the control of cancer in the United States is coordinated by the National Cancer Institute (NCI). To determine whether a substance has anti-cancer properties, the NCI has established a systematic protocol. […] The protocol, and the established statistical means for analyzing the results obtained by the standardized testing are fully described in the literature. […] Both of these references are incorporated herein by this reference thereto."}, "[2]": {"system": "SF-295", "assay": "NCI human tumor cell line screen, CNS SF-295", "format": "cell-based", "conditions": "minipanel comparison, column B (key not visible; values match SF-295)", "text": "as §1"}, "[3]": {"system": "A498", "assay": "NCI human tumor cell line screen, Renal A498", "format": "cell-based", "conditions": "minipanel comparison, column C (key not visible; values match A498)", "text": "as §1"}, "[4]": {"system": "NCI-H460", "assay": "NCI human tumor cell line screen, Lung-NSC NCI-H460", "format": "cell-based", "conditions": "minipanel comparison, column D (key not visible; values match NCI-H460)", "text": "as §1"}, "[5]": {"system": "KM20L2", "assay": "NCI human tumor cell line screen, Colon KM20L2", "format": "cell-based", "conditions": "minipanel comparison", "text": "as §1"}, "[6]": {"system": "SK-MEL-5", "assay": "NCI human tumor cell line screen, Melanoma SK-MEL-5", "format": "cell-based", "conditions": "minipanel comparison, column F (key not visible; values match SK-MEL-5)", "text": "as §1"}, "[7]": {"system": "P388 Lymphocytic Leukemia", "assay": "Murine in vivo system, P388 Lymphocytic Leukemia"}, "[8]": {"system": "L1210 Lymphocytic Leukemia", "assay": "Murine in vivo system, L1210 Lymphocytic Leukemia"}, "[9]": {"system": "B16 Melanoma", "assay": "Murine in vivo system, B16 Melanoma"}, "[10]": {"system": "Human Mammary Xenograph", "assay": "Human Mammary Xenograph, Nude Mouse", "format": "in vivo", "conditions": "26 μg/kg"}, "[11]": {"system": "M5076 Ovary Sarcoma", "assay": "Murine in vivo system, M5076 Ovary Sarcoma"}, "[12]": {"system": "OVCAR-3 Human Ovary Xenograph", "assay": "OVCAR-3 Human Ovary Xenograph, Nude Mouse", "format": "in vivo", "conditions": "OVCAR-3 xenograph, 40 μg/kg"}, "[13]": {"system": "LOX Human Melanoma Xenograph", "assay": "LOX Human Melanoma Xenograph (Nude Mouse)", "format": "in vivo"}, "[14]": {"system": "MX-1 Human Mammary Xenograft", "assay": "MX-1 Human Mammary Xenograft (Tumor Regression)", "format": "in vivo, Murine"}, "[15]": {"conditions": "LOX in separate experiments, 9.0 μg/kg"}, "[16]": {"conditions": "LOX in separate experiments, 26 μg/kg"}, "[17]": {"conditions": "LOX in separate experiments, 43 μg/kg"}}, "data": [{"substance": "Dolastatin 10", "values": [{"measurement": "GI50, minipanel cell line A", "setting": "[1]", "result": 0.00095, "unit": "ng/mL"}, {"measurement": "GI50, minipanel cell line B", "setting": "[2]", "result": "7.6e-05", "unit": "ng/mL"}, {"measurement": "GI50, minipanel cell line C", "setting": "[3]", "result": 0.026, "unit": "ng/mL"}, {"measurement": "GI50, minipanel cell line D", "setting": "[4]", "result": 0.0034, "unit": "ng/mL"}, {"measurement": "GI50, minipanel cell line E", "setting": "[5]", "result": 0.0047, "unit": "ng/mL"}, {"measurement": "GI50, minipanel cell line F", "setting": "[6]", "result": 0.0074, "unit": "ng/mL"}, {"measurement": "cures", "setting": "[7]; P388, 3.25 μg/kg", "result": 17, "unit": "%"}, {"measurement": "cures", "setting": "[7]; P388, 6.5 μg/kg", "result": 17, "unit": "%"}, {"measurement": "T/C", "setting": "[7]; P388, 13.0 μg/kg", "result": "toxic"}, {"measurement": "T/C", "setting": "[8]; L1210, 1.63 μg/kg", "result": 120}, {"measurement": "T/C", "setting": "[8]; L1210, 3.25 μg/kg", "result": 139}, {"measurement": "T/C", "setting": "[8]; L1210, 6.5 μg/kg", "result": 135}, {"measurement": "T/C", "setting": "[8]; L1210, 13 μg/kg", "result": 152}, {"measurement": "T/C", "setting": "[9]; B16, 1.44 μg/kg", "result": 142}, {"measurement": "T/C", "setting": "[9]; B16, 3.4 μg/kg", "result": 171}, {"measurement": "T/C", "setting": "[9]; B16, 4.0 μg/kg", "result": 205}, {"measurement": "T/C", "setting": "[9]; B16, 6.67 μg/kg", "result": 182}, {"measurement": "T/C", "setting": "[9]; B16, 11.11 μg/kg", "result": 238}, {"measurement": "cures", "setting": "[9]; B16, 11.11 μg/kg", "result": 40, "unit": "%"}, {"measurement": "T/C", "setting": "[10]", "result": "Toxic"}, {"measurement": "T/C", "setting": "[11]; M5076, 3.25 μg/kg", "result": 151}, {"measurement": "T/C", "setting": "[11]; M5076, 6.5 μg/kg", "result": 142}, {"measurement": "T/C", "setting": "[11]; M5076, 13 μg/kg", "result": 166}, {"measurement": "T/C", "setting": "[11]; M5076, 26 μg/kg", "result": "toxic"}, {"measurement": "T/C", "setting": "[12]", "result": 300}, {"measurement": "T/C", "setting": "[13]; [15]", "result": 138}, {"measurement": "cures", "setting": "[13]; [15]", "result": 17, "unit": "%"}, {"measurement": "T/C", "setting": "[13]; LOX in separate experiments, 15 μg/kg", "result": 192}, {"measurement": "T/C", "setting": "[13]; [16]", "result": 181}, {"measurement": "cures", "setting": "[13]; [16]", "result": 33, "unit": "%"}, {"measurement": "T/C", "setting": "[13]; [17]", "result": 340}, {"measurement": "cures", "setting": "[13]; [17]", "result": 50, "unit": "%"}, {"measurement": "T/C", "setting": "[13]; LOX, 3.25 μg/kg", "result": 170}, {"measurement": "cures", "setting": "[13]; LOX, 3.25 μg/kg", "result": 17, "unit": "%"}, {"measurement": "cures", "setting": "[13]; LOX, 6.5 μg/kg", "result": 33, "unit": "%"}, {"measurement": "cures", "setting": "[13]; LOX, 13 μg/kg", "result": 50, "unit": "%"}, {"measurement": "cures", "setting": "[13]; LOX, 26 μg/kg", "result": 67, "unit": "%"}, {"measurement": "T/C", "setting": "[13]; LOX, 52 μg/kg", "result": "toxic"}, {"measurement": "T/C (Tumor Regression)", "setting": "[14]; MX-1, 6.25 μg/kg", "result": 69}, {"measurement": "T/C (Tumor Regression)", "setting": "[14]; MX-1, 13 μg/kg", "result": 61}, {"measurement": "T/C (Tumor Regression)", "setting": "[14]; MX-1, 26 μg/kg", "result": 50}, {"measurement": "T/C (Tumor Regression)", "setting": "[14]; MX-1, 52 μg/kg", "result": 14}]}]}
